Test results taken from patent US10034836B2, “Formulations of guanylate cyclase C agonists and methods of use” (SYNERGY PHARMACEUTICALS, INC., priority 2008, dated 2018).
Where a SMILES comes first, the peptide text is derived from it. Bridges are numbered along the chain shown (N, C = ends).

Assay: Stability in simulated intestinal fluid (SIF), biological activity by cGMP synthesis in T84 cells
Format: in vitro ADME
Protocol: FIG. 2A: Biological activity of SP-304 incubated for varying lengths of time in simulated intestinal fluid (SIF). SP-304 samples were incubated for 0, 30, 60, 90, 150, and 300 min, respectively, and then tested for their ability to stimulate cGMP synthesis in T84 cells. The cGMP stimulation activity in the sample at 0 min of incubation time in SIF was taken as 100% biological activity. The activities of the other SP-304 incubation samples were calculated as the percentage of activity relative to that of the 0 min sample. Data points shown are the average of triplicate measurements±SD.
(§1) FIG. 7A: Biological activity of SP-333 incubated for varying lengths of time in simulated intestinal fluid (SIF). SP-333 samples incubated for 0, 5, 10, 30, 60, and 120 min, respectively, were tested for their ability to stimulate cGMP synthesis in T84 cells. The control sample marked as C120 was produced by incubating SP-333 with heat inactivated SIF for 120 min. Samples from the incubations were removed and heated at 95° C. for 5 min to inactivate digestive enzymes and then used to stimulate cyclic GMP synthesis in T84 cells. The cGMP stimulation activity in the sample at 0 min of incubation time in SIF was taken as 100% biological activity. The activities of the other SP-304 incubation samples were calculated as the percentage of activity relative to that of the 0 min sample. Data points shown are the average of triplicate measurements±SD.
as §1, with “FIG. 7B:” for “FIG. 7A:”, “of SP-332” for “of SP-333”, “incubating SP-332” for “incubating SP-333”
FIG. 7C: Biological activity of SP-304 incubated for varying lengths of time in simulated intestinal fluid (SIF). SP-304 samples incubated for 0, 10, and 60 min, respectively, were tested for their ability to stimulate cGMP synthesis in T84 cells. The control samples marked as C0 and C60 were produced by incubating SP-304 with heat inactivated SIF for 0 and 60 min, respectively. Samples from the incubations were removed and heated at 95° C. for 5 min to inactivate digestive enzymes and then used to stimulate cyclic GMP synthesis in T84 cells. The cGMP stimulation activity in the sample at 0 min of incubation time in SIF was taken as 100% biological activity. The activities of the other SP-304 incubation samples were calculated as the percentage of activity relative to that of the 0 min sample. […]
FIGS. 7G-1-7G-5: Incubation of SP-333 with SIF for 2, 6, 12 and 24 hrs. Effect of SIF digestion on the activity of SP-333 in T84 stimulation assay was determined (FIG. 7G-1) and samples were also analyzed by HPLC (FIGS. 7G2-5). […]
The stability of SP-304 was also evaluated after incubation with simulated intestinal fluid (SIF) by measuring its biological activity and by HPLC analyses (FIGS. 2A & 2B). […]

## CC(C)C[C@H](NC(=O)[C@@H]1CSSC[C@@H]2NC(=O)[C@H](CC(C)C)NC(=O)[C@H](CCC(=O)O)NC(=O)[C@@H](NC(=O)[C@H](CCC(=O)O)NC(=O)[C@H](CC(=O)O)NC(=O)[C@@H](N)CC(N)=O)CSSC[C@H](NC(=O)[C@H](C)NC(=O)[C@H](C(C)C)NC(=O)[C@H](CC(N)=O)NC(=O)[C@H](C(C)C)NC2=O)C(=O)N[C@@H]([C@@H](C)O)C(=O)NCC(=O)N1)C(=O)O [SP-304, Asn^1-Asp^2-Glu^3-Cys^4-Glu^5-Leu^6-Cys^7-Val^8-Asn^9-Val^10-Ala^11-Cys^12-Thr^13-Gly^14-Cys^15-Leu^16] (H-NDECELCVNVACTGCL-OH; disulfide 4-12, 7-15)
  loss of potency following digestion with SIF: about 30%
  reduction in biological activity after incubation in SIF: 30%
pH 6
  reduction of biological activity following incubation in SIF: about 30%
